Experiments:
Type in all cases: cell-based, human
ARv5,6,7 = test: Nuclear localization of GFP-tagged ARv5,6,7 in M12 cells, confocal microscopy; conditions: 10 nM R1881 2 h
Source text: (§1) Cells were then fixed, immunostained for tubulin, and imaged for GFP-AR and tubulin by confocal microscopy. Androgen receptor is shown as lighter staining (green in the original), while tubulin staining is darker but visible as lighter areas in the images (red in the original). Representative, high-magnification images from each condition are shown. […] Scale bar: 10 μm. FIG. 9D is a bar graph depicting the ratio of cells with nuclear androgen receptor over those with cytoplasmic androgen receptor for each condition. […] Relative mRNA expression of TMPRSS2 and FKBP51 was assessed by qPCR. Values were corrected to GAPDH and normalized to untreated M12 cells expressing control lentivirus (M12 lenti). […] Androgen receptor protein expression was detected by staining with anti-androgen receptor or anti-ARN-21 antibodies. […] Cells were then fixed, immunostained for tubulin, and imaged for GFP-AR and tubulin by confocal microscopy. […]
(§2) In addition, M12 cells stably expressing GFP-tagged AR-wt, AR or variants were generated in Or Giannakakou's laboratory. GFP^+ cells from all three androgen receptor cell lines were sorted using fluorescence activated cell sorting (FACS) on a BD FACSAria II cell sorter (BD Biosciences, Franklin Lakes, N.J., USA) and subsequently expanded in media containing G418 ([…]). […]

ARv7 = test: Nuclear localization of GFP-tagged ARv7 in M12 cells, confocal microscopy; conditions: 10 nM R1881 2 hr
Source text: as §1, §2

[1] = tested on: GEDI-captured circulating tumor cells from castration-resistant prostate cancer patients; test: On-chip ex-vivo taxane treatment of GEDI-captured patient circulating tumor cells, microtubule bundling as drug-target engagement
Source text: (§3) One ml of spiked blood was then passed through each of three GEDI devices. […] Following drug treatment, cells were fixed and processed for immunofluorescence staining using antibodies against tubulin and CD45. DAPI was used as a DNA counterstain to evaluate nuclear integrity. […] Following drug treatment, the PSMA-captured cells were fixed and processed for immunofluorescence staining as in FIG. 5A with the addition of cytokeratin-18 as an alternative epithelial marker.
For ex-vivo drug treatment experiments, the blood sample from each patient was divided and 1 ml was flown to each of three GEDI devices simultaneously. […] At the end of treatment, the GEDI-captured cells were fixed with PHEMO buffer and processed for multiplex confocal microscopy following immunostaining with different cell surface and cytoplasmic antibodies as indicated. […] The percent of circulating tumor cells with evidence of microtubule bundling was calculated. […] In addition, DAPI counterstain was used to assess the presence of mitotic or apoptotic nuclei following drug treatment.
The GEDI-captured circulating tumor cells were tested in situ (i.e., while in the GEDI device) to evaluate their chemosensitivity to taxanes, and predict a patient's clinical response to therapy. […] Microtubule bundling is the first event induced by taxane treatment, resulting in downstream mitotic arrest and apoptotic cell death, and is therefore an appropriate marker of efficient taxane drug-target engagement.

leucocytes = test: On-chip ex-vivo taxane treatment, microtubule bundling in leucocytes present on the chip; conditions: FIG. 5F patient (patient 4), 50 nM paclitaxel ex-vivo on-chip
Source text: as §3, with “FIG. 5A-5F illustrates on-chip assessment of effective drug-target engagement in viable GEDI-captured circulating tumor cells, and that tubulin responses to taxane treatment can be assessed in GEDI-captured cells. […] One” for “One”, “marker. […]” for “marker.”
For ex-vivo drug treatment experiments, the blood sample from each patient was divided and 1 ml was flown to each of three GEDI devices simultaneously. […] All circulating tumor cells (PSMA^+/CD45−/DAPI^+) were assessed for the presence of microtubule bundles as evidence of effective drug-target engagement. The percent of circulating tumor cells with evidence of microtubule bundling was calculated. In all samples analyzed, bundling was clearly apparent by the distinct shape, width, orientation and increased fluorescence intensity of microtubule bundles as compared with microtubules from untreated cells. […]

| Compound | nuclear accumulation of ARv5,6,7 induced by R1881 (ARv5,6,7) | nuclear accumulation of ARv7 induced by R1881 (ARv7) | microtubule bundling of circulating tumor cells ([1]; patient 2, 100 nM or 1 uM paclitaxel ex-vivo on-chip) | response of circulating tumor cells to drug treatment ([1]; patient 4, 50 nM paclitaxel ex-vivo on-chip) | apoptotic nuclei in circulating tumor cells ([1]; patient docetaxel progressor on cabazitaxel, ex vivo 24 hr) | effect on microtubule cytoskeleton of captured circulating tumor cells ([1]; patient of FIG. 5B (docetaxel progressor), 100 nM ex vivo, 24 hr) | mitotic arrest of captured circulating tumor cells ([1]; same patient as FIG. 5B (FIG. 5C), ex vivo 24 hr) | leucocytes present on the chip showing microtubule bundling (leucocytes) [%] |
| --- | --- | --- | --- | --- | --- | --- | --- | --- |
| C[C@]1(O)CC[C@H]2[C@@H]3CCC4=CC(=O)CCC4=C3C=C[C@@]21C [R1881, Methyltrienolone] | did not induce any further nuclear accumulation | does not increase nuclear accumulation |  |  |  |  |  |  |
| CC(=O)O[C@H]1C(=O)[C@@]2(C)[C@H]([C@H](OC(=O)c3ccccc3)[C@]3(O)C[C@H](OC(=O)[C@H](O)[C@@H](NC(=O)c4ccccc4)c4ccccc4)C(C)=C1C3(C)C)[C@]1(OC(C)=O)CO[C@@H]1C[C@@H]2O [paclitaxel] |  |  | display microtubule bundling | heterogeneous response | exhibited apoptotic nuclei | clear evidence of microtubule bundling | signs of aberrant mitotic arrest | ~100 |
